Test results: patent US9415122B2, “Methods and compositions for the detection of cancer cells” (priority 2008, dated 2016)
Where two headings read alike, the source gives them in different places. Where no end group is shown, it is not given here.

How the values were obtained:
[1] = test system: LN-229 flank tumors; details: 0.1 mmol/kg i.v.
Excerpt: Cells were infected with lentivirus encoding green fluorescent protein (GFP), diluted in BD Matrigel Matrix (BD Biosciences, Franklin Lakes, N.J.), and injected into both flanks of female nude athymic mice (NCr-nu/+, NCr-nu/nu, 20-25 g each). Approximately 1.4×10^6 cells were implanted per flank. To correlate tumor position with GFP fluorescence, mice were imaged using the Maestro FLEX In Vivo Imaging System as previously described. Tumor area was approximately 0.5 cm^2, as measured from GFP fluorescence images acquired with the Maestro just before MRI.
The MRI study was performed using a Bruker Biospec 7-T MRI scanner (Bruker Corp, Billerica, Mass.) with a 72-mm diameter cylindrical radio frequency coil. Mice bearing LN-229 flank tumors were imaged at 2 to 5 weeks after tumor implant. […]
Image analysis was performed by using Bruker ParaVision 4.0 imaging software. Regions of interest were drawn over the whole tumor in the 2D imaging plane and average signal intensity was measured. Contrast-to-noise ratios (CNRs) in the tumor were calculated at each time point and averaged from different mice (n=3) using the following equation: CNR=(St−Sm)/(δn), where St and Sm denote the signal in tumor and adjacent thigh muscle and δn is the SD of noise estimated from the background air. The P values were calculated using a two-tailed Student's t test, assuming statistical significance at P<0.05. […]

[2] = Mouse health after multiple doses of Cy5 probes; format: in vivo; details: delivery of multiple doses
Method: (§1) Imaging experiments were performed at 10-11 days for CNS-1 and 4-8 weeks for LN-229, to allow for optimal tumor growth and cell dispersal in these two cell lines. […] Following a 90-min interval for clearance of unbound probe, the animals were sacrificed and the brains removed for whole-brain imaging using the MAESTRO FLEX In-Vivo Imaging System (Cambridge Research & Instrumentation, Inc. (CRi), Woburn, Mass.) Immediately after imaging, the brains were embedded in Tissue-Tek OCT compound (Sakura Finetek U.S.A., Inc. Torrance, Calif.), frozen in a dry ice/ethanol slurry and cryo-imaged.

[3] = test system: CNS-1-GFP intracranial tumors; details: for Cy5 fluorescence intensity of main tumors and dispersed cell populations: CNS-1 tumors, i.v. probe, 90 min clearance, normalized to background and tumor volume; for labeling of tumor (Cy5 signal) in words: intracranial glioma tumors, i.v. administration (FIG. 4)
Method: as §1
Frozen brains were alternately sectioned and imaged using the previously described Case Cryo-Imaging System at a section thickness of 15 μm and a resolution of 11×11×15 μm. Brightfield and fluorescence images were acquired for each of the brains using a low light digital camera (Retiga Exi, QImaging Inc., Canada), an epi-illumination fluorescent light source (Lumen200 PRO, Prior Scientific' Rockland, Mass.) and fluorescence filters for GFP (Exciter: HQ470/40x, Dichroic: Q495LP, Emitter: HQ500LP) or Cy5 (Exciter: FF01-628/40-25, Dichroic: FF660-Di01−25×36, Emitter: FF01-692/40-25; Semrock, Rochester, N.Y.). Single GFP expressing cells were readily detected with this system. […] Eight brains implanted with CNS-1-GFP cells and six brains with LN-229-GFP cells were analyzed.
Briefly, the main tumor mass was segmented using a fast 3-D region growth algorithm with intensity and gradient-based inclusion/exclusion criteria. Individual slice images were manually edited if necessary. Dispersed cells and clusters were detected by thresholding a Gaussian high pass filter image, discounting the masked main tumor mass. […] Light scattering in tissue might appear as a false positive signal in Cy5 volumes, However, we processed Cy5 volumes with a next-image processing algorithm, and used attenuation and scattering parameters for brain tissue that were previously described. Similar parameters were applied for both SBK2-Cy5 and scrambled-Cy5 volumes. To find co-labeled cells/clusters we applied a logical AND operator between the dispersed cell and Cy5 volumes. The lower limit for the blood vessel detection algorithm was ˜30 μm diameter. 3-D volumes of tumor, dispersed cells, Cy5 labeled cells, and vasculature were rendered using Amira software (Visage Imaging Inc., San Diego, Calif.), with modifications developed expressly for cryo-image data. Pseudo-colors were chosen to give the best contrast between the different data volumes.

[4] = test system: LN-229-GFP intracranial tumors; experiment: In vivo labeling of LN-229-GFP intracranial tumors with Cy5 probes, 3-D cryo-imaging; set-up: species or system mouse; details: for Cy5 fluorescence of main tumors and dispersed cell populations: LN-229 tumors, i.v. probe, 90 min clearance
Excerpt: Individual slice images were manually edited if necessary.
Total fluorescence signal was then normalized for tumor volume.

[5] = test system: LN-229-GFP flank tumors; experiment: Histologic probe labeling of LN-229-GFP flank tumor tissue sections; format: binding, human; details: probe 1 μM, 1 hour, room temperature
Method: Tumors were embedded in Tissue Freezing Medium (Electron Microscopy Sciences, Hatfield, Pa.) in a dry ice ethanol slurry and cryosectioned at 7-μm intervals.
For probe labeling, tissue sections were blocked with 2% goat serum in phosphate-buffered saline for 20 minutes at room temperature, then incubated with SBK2-Texas Red or scrambled Texas Red probes diluted to 1 μMin block buffer for 1 hour at room temperature in dark conditions. The sections were rinsed with phosphate-buffered saline, coverslipped with Citifluor Antifadent Mounting Medium (Electron Microscopy Sciences), and imaged immediately at ×20 magnification on a Leica DMI 6000 B inverted microscope (Leica Microsystems GmbH, Wetzlar, Germany) using a Retiga EXi camera (QImaging, Surrey, BC) and Metamorph software (MolecularDevices, Downington, Pa.). Images were acquired across the entire tissue using bright-field and fluorescence optics for fluorescein (GFP) and Texas Red (probe). The resultant images were tiled and flattened to form a single composite image using Metamorph software. A human specific Vimentin antibody (clone SP20; Thermo Fisher Scientific, Fremont, Calif.) was used to detect the implanted LN-229 tumor cells and imaged as above.

[6] = test system: prostate tumors; experiment: Labeling of prostate tumors with PTPμ probe (FIG. 3)

Molecule | pattern of tumor enhancement on T1-weighted images / heat maps [1] | effects on mouse health [2] | Cy5 fluorescence intensity of main tumors and dispersed cell populations [3] | labeling of tumor (Cy5 signal) in words [3] | Cy5 fluorescence of main tumors and dispersed cell populations [4] | labeling of flank tumor sections [5] | further results
CC(O)CN1CCN(CC(=O)[O-])CCN(CC(=O)[O-])CCN(CC(=O)[O-])CC1.[Gd+3] (centres unmarked) [ProHance, Gadoteridol, reference compound] | enhanced contrast of the tumor edge compared with the tumor center | – | – | – | – | – | –
SBK2-Cy5: SBK2 peptide (SEQ ID NO: 5) with additional N-terminal glycine conjugated to Cy5 NHS ester dye (Cy5-GEGDDFNWEQVNTLTKPTSD) | – | did not result in deleterious effects | 73.5+/−16.2 | brightly labeled | 114.7+/−25.9 | – | blood-brain barrier crossing ([3]; mouse, in vivo, iv): crosses the blood-brain barrier; dispersed cell population labeled ([4]; LN-229-GFP intracranial tumors): greater than 99%; labeling of main GFP-positive tumor in words ([4]; LN-229-GFP intracranial tumors): bright Cy5 fluorescence signal
SBK2-Texas Red: SBK2 peptide probe labeled with Texas Red (EGDDFNWEQVNTLTKPTSD; not fully specified (N-terminus); also: labeled with Texas Red, site not given here) | – | – | – | – | – | labeled the entire tumor with greatest intensity in the tumor center | recognition of prostate tumors [6]: recognized
scrambled Texas Red: scrambled peptide probe labeled with Texas Red (GFTQPETGTDNDLWSVDNEK; not fully specified (N-terminus); also: labeled with Texas Red, site not given here) [reference compound] | – | – | – | – | – | did not label the tumor | –
scrambled Tris-(Gd-DOTA)3: scrambled SBK2 peptide (SEQ ID NO: 10) linked to Gd-DOTA; nontargeted control agent (CGFTQPETGTDNDLWSVDNEK; numbers in words are those of the source; also: Tris-(Gd-DOTA)3 conjugate, attachment site not given here) [reference compound] | enhanced contrast of the tumor edge compared with the tumor center | – | – | – | – | – | –
scrambled-Cy5: scrambled sequence of the SBK2 peptide (SEQ ID NO: 10) conjugated to Cy5 dye; control probe (GFTQPETGTDNDLWSVDNEK; also: Cy5 dye conjugate, attachment site not given here) [reference compound] | – | did not result in deleterious effects | 7.2+/−2.3 | did not label tumors | 5.8 | – | labeling of tumor (Cy5 signal) in words ([3]; listed as scrambled probe): no significant signal above background
